Target: T1, complex I (mitochondrial electron transport system; multi-subunit)
T1 construct: gene Mtnd1; native complex I in freeze-fractured fragments of isolated skeletal muscle mitochondria
Assay: NADH oxidation (complex I activity) assay in mitochondrial fragments, dose-response
Format: biochemical, Mus musculus

Compound: CC(Sc1nc2ccccc2[nH]1)C(=O)N/N=C/c1cc(Br)ccc1O (racemic) [KH7]
- IC50: 3.7 µM

From PMC4646981, “Protein Kinase A Governs Oxidative Phosphorylation Kinetics and Oxidant Emitting Potential at Complex I” (Frontiers in Physiology, 2015)
